Data reported in patent US4600537A, “Preparation of (±) 4-demethoxy-6 (and-11-)-deoxydaunomycinone” (Farmitalia Carlo Erba S.p.A., priority 1981, dated 1986).
Values after ≈ are worked out from the molar mass of the structure shown. Values joined by “and” are separate entries in the source; they are usually repeats but may differ in a detail not shown here. Identical values can stand only once.

Experiments:
[1] = test system: P388 ascitic leukemia; assay: Effect against P388 leukemia in mice; parameters: LTS (long term survivors) / Toxic deaths (evaluated on the basis of zooptic findings): dose or concentration left out as unconfirmed; conditions: for antitumor activity (in words): P388 ascitic leukemia in mice
Experimental: The activity of the compounds 4-demethoxy-4'-epi-11-deoxydaunorubicin and 4-demethoxy-deoxy-daunorubicin was also tested against P388 ascitic leukemia in mice.

[2] = test system: Hela cells; assay: Effect on Hela cells cloning activity (cytotoxic activity in vitro); type: cell-based; conditions: treatment for 24 hours; for IC50: read-out: Effect on Hela cells cloning activity, ID50; for Effect on Hela cells cloning activity, %: 1440 min; for activity at 0.1 µg/mL: dose 100 ng/ml
Experimental: The biological activity of the following compound was tested against Hela cells in vitro: […]

[3] = Homo sapiens, HeLa, 24 h, dose 6.2 ng/ml
[4] = Homo sapiens, HeLa, 24 h, dose 25 ng/ml

## 4-demethoxy-deoxy-daunorubicin
[1]
  antitumor activity (in words): exert antitumor activity
[1]; dose 4.4, ip on day 1
  LTS (long term survivors): 0/10
  Toxic deaths (evaluated on the basis of zooptic findings): 0/10
[1]; dose 6.6, ip on day 1
  LTS (long term survivors): 0/10
  Toxic deaths (evaluated on the basis of zooptic findings): 7/10
[1]; dose 10, ip on day 1
  LTS (long term survivors): 0/10
  Toxic deaths (evaluated on the basis of zooptic findings): 8/10

## CC(=O)[C@]1(O)Cc2cc3c(c(O)c2[C@@H](O[C@H]2C[C@H](N)[C@@H](O)[C@H](C)O2)C1)C(=O)c1ccccc1C3=O [4-demethoxy-4'-epi-11-deoxydaunorubicin]
[1]
  antitumor activity (in words): exert antitumor activity
[1]; dose 6.6, ip on day 1
  LTS (long term survivors): 0/10
  Toxic deaths (evaluated on the basis of zooptic findings): 0/10
[1]; dose 10, ip on day 1
  LTS (long term survivors): 0/10
  Toxic deaths (evaluated on the basis of zooptic findings): 0/10
[1]; dose 15, ip on day 1
  LTS (long term survivors): 0/10
  Toxic deaths (evaluated on the basis of zooptic findings): 0/10
[2]; Homo sapiens, HeLa
  IC50: 0.04 µg/mL (≈ 0.0831 µM)
[2]; dose 1.5 ng/ml
  Effect on Hela cells cloning activity, %: 78% and 109%
[2]; dose 6.2 ng/ml
  Effect on Hela cells cloning activity, %: 60% and 105%
[2]; dose 25 ng/ml
  Effect on Hela cells cloning activity, %: 56% and 82%

## CC(=O)[C@]1(O)Cc2c(cc3c(c2O)C(=O)c2ccccc2C3=O)[C@@H](O[C@H]2C[C@H](N)[C@H](O)[C@H](C)O2)C1 [4-demethoxy-6-deoxydaunorubicin]
[2]; Homo sapiens, HeLa, 24 h, dose 5 ng/ml
  activity at 0.005 µg/mL: 119%
[2]; Homo sapiens, HeLa, 24 h, dose 10 ng/ml
  activity at 0.01 µg/mL: 73%
[2]; Homo sapiens, HeLa, 24 h, dose 50 ng/ml
  activity at 0.05 µg/mL: 4%
[2]; Homo sapiens, HeLa, 24 h, dose 250 ng/ml
  activity at 0.25 µg/mL: 0%
[2]; Homo sapiens, HeLa
  IC50: 0.017 µg/mL (≈ 0.0353 µM)

## C[C@@H]1O[C@@H](O[C@H]2C[C@](O)(C(=O)CO)Cc3cc4c(c(O)c32)C(=O)c2ccccc2C4=O)C[C@H](N)[C@H]1O [4-demethoxy-11-deoxy-4'-epidoxorubicin]
[2]; [3]
  activity at 0.0062 µg/mL: 100%
[2]; [4]
  activity at 0.025 µg/mL: 33%
[2]; Homo sapiens, HeLa, 24 h
  activity at 0.1 µg/mL: 1%
[2]; Homo sapiens, HeLa, 24 h, dose 400 ng/ml
  activity at 0.4 µg/mL: 0%
[2]; Homo sapiens, HeLa
  IC50: 0.02 µg/mL (≈ 0.0402 µM)

## CC(=O)[C@]1(O)Cc2cc3c(c(O)c2[C@@H](O[C@H]2C[C@H](N)[C@H](O)[C@H](C)O2)C1)C(=O)c1ccccc1C3=O [4-demethoxy-11-deoxydaunorubicin]
[2]; [3]
  activity at 0.0062 µg/mL: 112%
[2]; [4]
  activity at 0.025 µg/mL: 50%
[2]; Homo sapiens, HeLa, 24 h
  activity at 0.1 µg/mL: 0%
[2]; Homo sapiens, HeLa
  IC50: 0.025 µg/mL (≈ 0.0519 µM)

## COc1cccc2c1C(=O)c1c(O)c3c(c(O)c1C2=O)C[C@@](O)(C(C)=O)C[C@@H]3O[C@H]1C[C@H](N)[C@H](O)[C@H](C)O1 [Daunorubicin, reference compound]
[1]; dose 2.9, ip on day 1
  LTS (long term survivors): 0/10
  Toxic deaths (evaluated on the basis of zooptic findings): 0/10
[1]; dose 4.4, ip on day 1
  LTS (long term survivors): 0/10
  Toxic deaths (evaluated on the basis of zooptic findings): 0/10
[1]; dose 6.6, ip on day 1
  LTS (long term survivors): 0/10
  Toxic deaths (evaluated on the basis of zooptic findings): 3/10
[2]; Homo sapiens, HeLa, 24 h, dose 3.1 ng/ml
  activity at 0.0031 µg/mL: 104%
[2]; Homo sapiens, HeLa, 24 h, dose 12.5 ng/ml
  activity at 0.0125 µg/mL: 65%
[2]; Homo sapiens, HeLa
  IC50: 0.015 µg/mL (≈ 0.0284 µM)
[2]; dose 3.1 ng/ml
  Effect on Hela cells cloning activity, %: 115%
[2]; dose 6.2 ng/ml
  Effect on Hela cells cloning activity, %: 86% and 150% and 93% and 101%
[2]; dose 12.5 ng/ml
  Effect on Hela cells cloning activity, %: 83% and 80% and 77% and 79%
